# Assay results reported in patent publication US20130158111A1, “Compositions and Methods for Depleting Mutant p53” (Georgetown University, priority 2011, published 2013).
# Key:
# A549 (WT p53) cell line = assay: Cell proliferation, A549; format: cell-based, Human
# Method: Next, the effect of PEITC exposure on tumor growth of the tumor cell lines expressing mutant or the WT p53 protein was examined. […] This hypersensitivity to PEITC being mediated through mutant p53 was next examined. The effect of PEITC on mda-mb-231 cells depleted of mutant p53 by >90% was compared to non-specific (NS) siRNA transfected cells as a control (FIG. 9B). […] Further the effect of PEITC treatment on the level of mutant p53 protein at lower doses was analyzed by western blot analysis (FIG. 9D).
# mutant p53 mRNA = assay: Reverse transcription PCR of p53 mRNA in H596 cells; format: cell-based, Human; settings: H596, 15 μM PEITC; 2, 4, and 6 h
# Method: Total RNA was extracted from the cells using the RNeasy kit (Qiagen). Reverse transcription PCR was performed using SuperScript One-Step RT-PCR kit (Invitrogen) according to the manufacturer's instructions. Primers for p53 were 5′-[…]-3′ (sense) and 3′-[…]-5′ (antisense). Primers for β-actin were 5′-[…]-3′ (sense) and 3′-[…]-5′ (antisense). β-Actin was used as an internal standard for RNA normalization.
# [1] = biological target: T1, wild-type p53 in A549, HCT116, MCF-7 and MCF-10A cells (Homo sapiens, UniProt P04637); assay: Immunoblot of wild-type p53 in cells with wild-type p53; format: cell-based
# T1 construct: host or cells: A549, HCT116, MCF-7, MCF-10A
# Excerpt: (§1) Human H596, A549, HCT116, MDA-MB-231, MDA-MB-468, MCF-7, DU145, MCF-10A, SW480, and SCC-4 cells were obtained from ATCC (Manassas, Va.). H1299-175H cells were kindly provided by Dr. Maria Laura Avantaggiati (Georgetown University). Cells were maintained in DMEM or RPMI-1640 medium supplemented with 10% FBS (Hyclone). DMSO, PEITC, BITC, SFN, AITC, NMPEA, and monochlorobimane were purchased from Sigma-Aldrich (St. Louis, Mo.). 2,2-Diphenylethyl ITC, 4-phenoxybenzyl ITC, 4-methoxybenzyl ITC, 4-chlorobenzyl ITC, Dα-methylbenzyl ITC, trityl ITC, and 3-phenylpropyl ITC were purchased from Trans World Chemicals (Rockville, Md.). Erucin and 4-phenylbutyl ITC were from LKT Laboratories, Inc. (St. Paul, Minn.). […] All the compounds are with purities ≧95% as determined by gas-liquid chromatography or HPLC. […]
# (§2) Whole cell lysates were prepared in lysis buffer (20 mM HEPES, pH 7.4, 2 mM EGTA, 50 mM β-glycerol phosphate, 1% Triton X-100, 10% glycerol, 1 mM DTT, 1 mM PMSF, […], 1 mM Na3-VO4, and 5 mM NaF). […] Proteins were detected using enhanced chemiluminescence (ECL) reagents (GE Healthcare). […]
# [2] = biological target: T2, mutant (G245C) p53 DNA-binding domain (Homo sapiens, UniProt P04637, G245C); assay: Monochlorobimane fluorometric cysteine binding assay; settings: 100 μM ITC, 1 h, 32 C; compared with trityl ITC, cyclohexylmethyl ITC, SFN, AITC, and PITC (p<0.05)
# T2 construct: made in house; host or cells: Escherichia coli BL21
# Method: BL21 […] Escherichia coli were transformed with pET29b wild-type or mutant (G245C) p53 DNA binding domain (DBD) plasmids. The E. coli were then cultured in LB media supplemented with 100 μM ZnCl2 and 25 μg/mL kanamycin at 37° C. until OD600=0.6-0.8. Protein expression was induced by 0.1 mM isopropyl β-D-1-thiogalactopyranoside for 16 h at 37 gC for wild-type and 16 gC for mutant p53. Bacterial pellets were then harvested by centrifugation at 5000×g, 10 min, 4 gC, and lysed via sonication in 50 mM Tris, 50 mM KCl, 5 mM dithiothreitol, 1 mM PMSF, pH 7 buffer. The soluble fraction was passed through a Capto S cation exchange column (GE Healthcare) and eluted with 50 mM Tris, 200 mM KCl, 5 mM DTT, pH 7. Eluted protein was dialyzed overnight against a non-salt dialysis buffer (50 mM Tris, 5 mM DTT, pH 7) and loaded onto a HiTrap Heparin HP column (GE Healthcare). The p53 DBD was purified via a AKTApurifier-10 protein liquid chromatography system (GE Healthcare) with an increasing KCl salt gradient, and purity was tested by SDSPAGE and Coomassie blue staining. Purified protein was dialyzed in PBS, and protein concentrations were determined prior to performing fluorescence experiments.
# In a white 96-well plate, 100 μL of purified mutant (G245C) p53 DNA-binding domain protein in PBS was treated with DMSO, 100 μM ITCs in DMSO, or 500 μM iodoacetamide (positive binding control). An additional well containing 100 μL of PBS was used to determine background. Samples were incubated with compounds in the dark for 1 h at 32 gC, after which […] of 10 mM monochlorobimane was added (in the dark), and samples were further incubated in the dark at 32 gC for 30 min. Fluorescence readings were then obtained using a BIO-TEK Synergy HT plate reader (λex 380 nm; λem 485 nm).
# [3] = tested on: mutant p53 in MDA-MB-231, MDA-MB-468, DU145, SW480, and SCC-4 cells; assay: Immunoblot of mutant p53 in other tumor cells with mutant p53; format: cell-based, Human
# Excerpt: as §1, §2
structure (smiles),measurement,setting,value
"S=C=NCCc1ccccc1 [PEITC, phenethyl isothiocyanate]",reduction in cell proliferation,A549 (WT p53) cell line; 12 μM PEITC,25%
same,reduction in cell proliferation,A549 (WT p53) cell line; 14 μM PEITC,45%
same,mutant p53 mRNA levels,mutant p53 mRNA,remained unchanged
same,wild-type p53 expression,"[1]; 15 or 20 μM PEITC for 2, 4, 8, and 24 h",did not decrease
same,level of wild type (WT) p53 protein,"[1]; PEITC exposure, summary of previous experiments",no significant decrease
same,"binding affinity for mutant (G245C) p53 DBD (free thiols, relative fluorescence)",[2],greater binding affinities
same,mutant p53 level in five cell lines,"[3]; 10 or 15 μM PEITC, time-dependent",depleted mutant p53 in all five cell lines
same,concentration causing marked reduction in the level of mutant p53 protein,[3]; variety of tumor cell lines,≥ 10 µM
